The source of these data is patent publication US10906940B2, “Antimicrobial peptides, pharmaceutical compositions, and methods of use thereof” (priority 2014, dated 2021).

In brackets after ≈: the same amount, converted by molar mass. Where a SMILES comes first, the peptide text is derived from it. Bridges are numbered along the chain shown (N, C = ends). [ ]: non-standard residue; d: D form. The star is where a group is joined. Pentadecanoyl = CCCCCCCCCCCCCCC(=O)*; Tridecanoyl = CCCCCCCCCCCCC(=O)*; Undecanoyl = CCCCCCCCCCC(=O)*; dOrn = NCCC[C@@H](N)C(=O)O

Assay [1] concerns K. pneumoniae CVM 15102 (shv5). The class given is cell-based, Klebsiella pneumoniae. An excerpt:
(§1) The same MIC assay as in Example 6 was used to determine the antimicrobial susceptibility of Compound A, L-form (FIG. 15), and several variants. One variant was Compound A, D-form, with D-Lysine at position 7. Compound B is a variant in the fatty acid chain, with a fatty acid chain composition of C15H29O, and having D-Lys at position 7. Compound C is a variant in the fatty acid chain with a fatty acid chain composition of C11H21O, and having D-Lys at position 7. Variant D is a sequence variant with Phe at position 6 of the cyclic peptide, and having D-Lys at position 7. All variants were chemically synthesized.

For assay [2], the system named is K. pneumonia CVM 15105 (shv5). The class given is cell-based, Klebsiella pneumoniae.
Description: as §1

The subject of assay [3] is K. pneumonia CVM 40142 (ges-1). The format is cell-based, Klebsiella pneumoniae.
Description: as §1

The subject of assay [4] is K. pneumoniae CVM 9246 (shv18, oxa2). The class given is cell-based, Klebsiella pneumoniae.
Description: as §1

Assay [5] concerns E. faecium ATCC 700221. Nature of the assay: microbe, parasite or virus in culture. The class given is cell-based. As to conditions: ATCC 700221.
Description: as §1

Assay [6] relates to E. faecium ATCC 2320. Nature of the assay: microbe, parasite or virus in culture. The format is cell-based. As to conditions: ATCC 2320.
Description: as §1

Assay [7] concerns E. faecium BAA-2318. Nature of the assay: microbe, parasite or virus in culture. The class given is cell-based. As to conditions: BAA-2318.
Description: as §1

For assay [8], the system named is E. faecalis ATCC 51575. Nature of the assay: microbe, parasite or virus in culture. As to conditions: ATCC 51575. The class given is cell-based, Enterococcus faecalis.
Description: as §1

For assay [9], the system named is E. faecalis BAA-2365. Nature of the assay: microbe, parasite or virus in culture. The class given is cell-based, Enterococcus faecalis. As to conditions: BAA-2365.
Description: as §1

The test system of assay [10] is S. Keur massar CVM 40135 (shv12). The format is cell-based, Salmonella.
Description: as §1

Assay [11] concerns S. Newport CVM 40115 (cmy 2). The class given is cell-based, Salmonella.
Description: as §1

The test system of assay [12] is S. Typhimurium CVM 40117 (ctx-m-5). The class given is cell-based, Salmonella.
Description: as §1

For assay [13], the system named is S. Bareilly CVM40145 (ACC-1). The class given is cell-based, Salmonella.
Description: as §1

Assay [14] has as its system S. Heidelberg CVM 40140 (cmy-2). The format is cell-based, Salmonella.
Description: as §1

For assay [15], the system named is Serratia marcescens SAMN 04276914. The format is cell-based. As to conditions: SAMN 04276914.
For assay [16], the system named is Enterobacter sakazakii E784.
In assay [17] the test system is P. aeruginosa -01.
In assay [18] the test system is Enterobacter cloacae SBJ-7612. As to conditions: SBJ-7612.
The subject of assay [19] is P. aeruginosa -03.
The subject of assay [20] is Klebsiella pneumoniae SBJ-9149. As to conditions: SBJ-9149.
Assay [21] deals with Listeria monocytogenes R2-583.
Assay [22] concerns Enterobacter cloacae SBJ-9222. As to conditions: SBJ-9222.
In assay [23] the test system is E. coli ATCC 25853. As to conditions: ATCC 25853.
The subject of assay [24] is carbapenem-resistant (CRE) strains and MRSA strains. Nature of the assay: Broth microdilution MIC, summary of spectrum. The class given is cell-based. A general note: Dilution methods test growth across graded concentrations, often in twofold steps.
Assay [25] relates to E. faecalis ATCC 29212.
Assay [26] deals with Salmonella Newport #17.
The test system of assay [27] is S. aureus ATCC 29213.
For assay [28], the system named is S. aureus ATCC25923.
In assay [29] the test system is P. aeruginosa SBJ-10886.
Assay [30] deals with E. coli O157: H7 EDL933.
The test system of assay [31] is P. aeruginosa -02.
Assay [32] relates to P. aeruginosa SBJ-10884.
In assay [33] the test system is P. aeruginosa ATCC-27853. As to conditions: ATCC-27853.
In assay [34] the test system is Klebsiella pneumoniae SBJ-9388. As to conditions: SBJ-9388.
Assay [35] relates to Klebsiella pneumoniae SBJ-9483. As to conditions: SBJ-9483.

`CCCCCCCCCCCCC(=O)N[C@H](CCCN)C(=O)N[C@H](C(=O)N[C@@H]1C(=O)N[C@H](CCCN)C(=O)N[C@@H](CO)C(=O)N[C@@H](Cc2ccccc2)C(=O)N[C@H](CCCCN)C(=O)N[C@H](CO)C(=O)N[C@@H]([C@@H](C)CC)C(=O)N2CCC[C@H]2C(=O)N[C@@H]([C@@H](C)CC)C(=O)N2CCC[C@H]2C(=O)N[C@@H]([C@@H](C)CC)C(=O)O[C@@H]1C)C(C)C` [Variant D] (Tridecanoyl-[dOrn]VT[dOrn]SF[dK][dS]IPIPI; ester 3-C; N-terminus assumed): the MIC in assay [1], in assay [2], in assay [3], in [4], in assay [5] and in assay [6] was 8 µg/mL (≈ 4.97 µM) each time. Further, the MIC was 8 µg/mL (≈ 4.97 µM) in assay [7]; 8 µg/mL (≈ 4.97 µM) in [8]; 8 µg/mL (≈ 4.97 µM) in assay [9]; 16 µg/mL (≈ 9.95 µM) in [10]; 8 µg/mL (≈ 4.97 µM) in assay [11]; 8 µg/mL (≈ 4.97 µM) in assay [12]. The MIC in assay [13] came out at 32 µg/mL (≈ 19.9 µM); in [14], 16 µg/mL (≈ 9.95 µM); in assay [15], 64 µg/mL (≈ 39.8 µM).

For `CCCCCCCCCCC(=O)N[C@H](CCCN)C(=O)N[C@H](C(=O)N[C@@H]1C(=O)N[C@H](CCCN)C(=O)N[C@@H](CO)C(=O)N[C@@H](Cc2ccc(O)cc2)C(=O)N[C@H](CCCCN)C(=O)N[C@H](CO)C(=O)N[C@@H]([C@@H](C)CC)C(=O)N2CCC[C@H]2C(=O)N[C@@H]([C@@H](C)CC)C(=O)N2CCC[C@H]2C(=O)N[C@@H]([C@@H](C)CC)C(=O)O[C@@H]1C)C(C)C` [Compound C] (Undecanoyl-[dOrn]VT[dOrn]SY[dK][dS]IPIPI; ester 3-C; N-terminus assumed), the MIC in assay [1], in assay [2], in assay [3], in [4], in [5] and in [6] was 8 µg/mL (≈ 5.01 µM) each time. For the same compound, the MIC in assay [7] worked out at 8 µg/mL (≈ 5.01 µM); in assay [8], 32 µg/mL (≈ 20 µM); in assay [9] it was 32 µg/mL (≈ 20 µM); in assay [10], 16 µg/mL (≈ 10 µM); in [11], 16 µg/mL (≈ 10 µM); in assay [12], 16 µg/mL (≈ 10 µM). Also, the values for the MIC in [13], in assay [14] and in [15] were 16 µg/mL (≈ 10 µM), 16 µg/mL (≈ 10 µM) and 64 µg/mL (≈ 40.1 µM), respectively.

For the compound `CCCCCCCCCCCCCCC(=O)N[C@H](CCCN)C(=O)N[C@H](C(=O)N[C@@H]1C(=O)N[C@H](CCCN)C(=O)N[C@@H](CO)C(=O)N[C@@H](Cc2ccc(O)cc2)C(=O)N[C@H](CCCCN)C(=O)N[C@H](CO)C(=O)N[C@@H]([C@@H](C)CC)C(=O)N2CCC[C@H]2C(=O)N[C@@H]([C@@H](C)CC)C(=O)N2CCC[C@H]2C(=O)N[C@@H]([C@@H](C)CC)C(=O)O[C@@H]1C)C(C)C` [Compound B] (Pentadecanoyl-[dOrn]VT[dOrn]SY[dK][dS]IPIPI; ester 3-C; N-terminus assumed), the MIC in [1] is 8 µg/mL (≈ 4.84 µM); in [2], 16 µg/mL (≈ 9.68 µM); in [3], 16 µg/mL (≈ 9.68 µM); in assay [4], 8 µg/mL (≈ 4.84 µM); in [5] it was 4 µg/mL (≈ 2.42 µM); in [6], 4 µg/mL (≈ 2.42 µM). Besides, the MIC in assay [7] was 4 µg/mL (≈ 2.42 µM); in assay [8], 8 µg/mL (≈ 4.84 µM); in assay [9], 4 µg/mL (≈ 2.42 µM); in assay [10], 32 µg/mL (≈ 19.4 µM); in [11], 16 µg/mL (≈ 9.68 µM); in assay [12], 16 µg/mL (≈ 9.68 µM). Further, the MIC in assay [13] was 32 µg/mL (≈ 19.4 µM); in assay [14] it was 16 µg/mL (≈ 9.68 µM); in assay [15], 64 µg/mL (≈ 38.7 µM).

As to `CCCCCCCCCCCCC(=O)N[C@H](CCCN)C(=O)N[C@H](C(=O)N[C@@H]1C(=O)N[C@H](CCCN)C(=O)N[C@@H](CO)C(=O)N[C@@H](Cc2ccc(O)cc2)C(=O)N[C@@H](CCCCN)C(=O)N[C@H](CO)C(=O)N[C@@H]([C@@H](C)CC)C(=O)N2CCC[C@H]2C(=O)N[C@@H]([C@@H](C)CC)C(=O)N2CCC[C@H]2C(=O)N[C@@H]([C@@H](C)CC)C(=O)O[C@@H]1C)C(C)C` [Compound A L-form] (Tridecanoyl-[dOrn]VT[dOrn]SYK[dS]IPIPI; ester 3-C), the MIC came to 8 µg/mL (≈ 4.93 µM) in [16]; 8 µg/mL (≈ 4.93 µM) in assay [17]; 4 µg/mL (≈ 2.46 µM) in [18]; 8 µg/mL (≈ 4.93 µM) in assay [19]; 4 µg/mL (≈ 2.46 µM) in assay [20]; 2 µg/mL (≈ 1.23 µM) in assay [21]. For the same compound, the MIC was found to be 8 µg/mL (≈ 4.93 µM) in assay [22]; 4 µg/mL (≈ 2.46 µM) in [23]; 8 µg/mL (≈ 4.93 µM) in assay [1]; 8 µg/mL (≈ 4.93 µM) in assay [2]; 8 µg/mL (≈ 4.93 µM) in [3]; 8 µg/mL (≈ 4.93 µM) in [4]. In addition, the MIC is 4 µg/mL (≈ 2.46 µM) in [5]; 4 µg/mL (≈ 2.46 µM) in assay [6]; 4 µg/mL (≈ 2.46 µM) in [7]; 8 µg/mL (≈ 4.93 µM) in assay [8]; 8 µg/mL (≈ 4.93 µM) in assay [9]; 16 µg/mL (≈ 9.85 µM) in assay [10]. Also, the MIC in assay [11] turned out to be 8 µg/mL (≈ 4.93 µM); in assay [12], 8 µg/mL (≈ 4.93 µM); in [13], 16 µg/mL (≈ 9.85 µM); in assay [14], 16 µg/mL (≈ 9.85 µM); in assay [25] it was 4 µg/mL (≈ 2.46 µM); in assay [26], 16 µg/mL (≈ 9.85 µM). For the same compound, the MIC in assay [27] came out at 4 µg/mL (≈ 2.46 µM); in [28], 2 µg/mL (≈ 1.23 µM); in assay [29], 4 µg/mL (≈ 2.46 µM); in [30] it was 4 µg/mL (≈ 2.46 µM); in [15], 64 µg/mL (≈ 39.4 µM); in assay [31], 8 µg/mL (≈ 4.93 µM). Also, the MIC in [32] is 4 µg/mL (≈ 2.46 µM); in [33], 8 µg/mL (≈ 4.93 µM); in assay [34], 4 µg/mL (≈ 2.46 µM); in assay [35], 4 µg/mL (≈ 2.46 µM). Besides, in [24] (comparison in words), the “sensitivity of bacteria compared with paenibacterin of US2013/0164317” value is recorded as “much greater sensitivity”. Besides, the “activity against CRE strains and MRSA strains” value in [24] (summary of Table 6) is on record as “very potent activity”.

With `CCCCCCCCCCCCC(=O)N[C@H](CCCN)C(=O)N[C@H](C(=O)N[C@@H]1C(=O)N[C@H](CCCN)C(=O)N[C@@H](CO)C(=O)N[C@@H](Cc2ccc(O)cc2)C(=O)N[C@H](CCCCN)C(=O)N[C@H](CO)C(=O)N[C@@H]([C@@H](C)CC)C(=O)N2CCC[C@H]2C(=O)N[C@@H]([C@@H](C)CC)C(=O)N2CCC[C@H]2C(=O)N[C@@H]([C@@H](C)CC)C(=O)O[C@@H]1C)C(C)C` [Compound A D-form] (Tridecanoyl-[dOrn]VT[dOrn]SY[dK][dS]IPIPI; ester 3-C), the MIC in assay [1], in assay [2], in assay [3], in [4], in assay [5] and in [6] was 8 µg/mL (≈ 4.93 µM) each time. Also, the MIC in assay [7] is 4 µg/mL (≈ 2.46 µM); in assay [8], 8 µg/mL (≈ 4.93 µM); in assay [9] it was 8 µg/mL (≈ 4.93 µM); in assay [10], 16 µg/mL (≈ 9.85 µM); in [11], 8 µg/mL (≈ 4.93 µM); in assay [12] it was 8 µg/mL (≈ 4.93 µM). Further, the MIC stood at 8 µg/mL (≈ 4.93 µM) in assay [13], 16 µg/mL (≈ 9.85 µM) in assay [14] and 32 µg/mL (≈ 19.7 µM) in [15].
